For assay [1], the species on record is Rattus norvegicus. Nature of the assay: Inhibition concentration against lipid peroxidation initiated by [Fe2+] and L-ascorbic acid in rat brain homogenates. Type of assay: functional.
The species named for assay [2] is Rattus norvegicus. Kind of assay: Inhibition concentration against DPPH radical scavenging activity […] was determined. Format: functional.

SMILES strings stand for the structures.

Turning to `COc1cc2c(cc1O)C(=O)CC(C(N)=O)O2` (stereo unspecified), the IC50 in the assay listed under Rattus norvegicus [1] is more than 300 µM; in the assay listed under Rattus norvegicus [2], 214 µM.

For the compound `CCCCNC(=O)C1CC(=O)c2cc(O)c(OC)cc2O1` (stereo unspecified), the IC50 in the assay listed under Rattus norvegicus [1] was 177 µM; in the assay filed under Rattus norvegicus [2] it was 66.4 µM.

As to `COc1cc2c(cc1O)C(=O)CC(C(=O)O)O2` (stereo unspecified), the IC50 in the assay listed under Rattus norvegicus [1] was more than 300 µM; in the assay filed under Rattus norvegicus [2], 104 µM.

Regarding `COc1cc2c(cc1O)C(=O)CC(C(=O)Nc1ccccc1)O2` (stereo unspecified), the results for the IC50 in the assay filed under Rattus norvegicus [1] and in the assay listed under Rattus norvegicus [2] were 293 µM and 119 µM, respectively.

As to `COc1cc2c(cc1O)CCC(C(=O)O)O2` (stereo unspecified), the IC50 in the assay listed under Rattus norvegicus [1] was more than 300 µM; in the assay filed under Rattus norvegicus [2] it was 16.8 µM.

As for `Cc1c(C)c2c(c(C)c1O)CCC(C)(C(=O)O)O2` (stereo unspecified) [TROLOX], the IC50 in the assay filed under Rattus norvegicus [1] stood at 166 µM; in the assay filed under Rattus norvegicus [2] it was 18.2 µM.

Take `CCCCNC(=O)C1CCc2cc(O)c(OC)cc2O1` (stereo unspecified): the IC50 in the assay filed under Rattus norvegicus [1] was 51.3 µM; in the assay listed under Rattus norvegicus [2], 24.8 µM.

With `CCCNC(=O)C1CC(=O)c2cc(O)c(OC)cc2O1` (stereo unspecified), the figures for the IC50 in the assay listed under Rattus norvegicus [1] and in the assay listed under Rattus norvegicus [2] were more than 300 µM and 80.8 µM, respectively.

For the compound `COc1cc2c(cc1O)CCC(C(=O)Nc1ccc([N+](=O)[O-])cc1)O2` (stereo unspecified), the results for the IC50 in the assay listed under Rattus norvegicus [1] and in the assay filed under Rattus norvegicus [2] were 3.8 µM and 40.1 µM, respectively.

In the case of `COc1cc2c(cc1O)CCC(C(=O)NCc1ccccc1)O2` (stereo unspecified), the values for the IC50 in the assay listed under Rattus norvegicus [1] and in the assay listed under Rattus norvegicus [2] were 16.6 µM and 21.7 µM, respectively.

As to `CCCNC(=O)C1CCc2cc(O)c(OC)cc2O1` (stereo unspecified), the IC50 in the assay listed under Rattus norvegicus [1] stood at 119 µM; in the assay listed under Rattus norvegicus [2] it was 42.9 µM.

Consider `COc1cc2c(cc1O)CCC(C(=O)Nc1ccccc1)O2` (stereo unspecified), for which the IC50 in the assay filed under Rattus norvegicus [1] turned out to be 6.9 µM; in the assay filed under Rattus norvegicus [2] it was 24.9 µM.

Take `COc1cc2c(cc1O)C(=O)CC(C(=O)NCc1ccccc1)O2` (stereo unspecified): the IC50 in the assay filed under Rattus norvegicus [1] was more than 300 µM; in the assay listed under Rattus norvegicus [2], 118 µM.
